Data reported in ChEMBL document CHEMBL5537145, “Design, synthesis and evaluation of novel UDCA-aminopyrimidine hybrids as ATX inhibitors for the treatment of hepatic and pulmonary fibrosis” (Eur J Med Chem, 2024).
pIC50: −log10 of the molar value. Active and inactive are the calls of the source. The rule behind the calls is not given here.

Experiments:
LX-2 [1] = assay: Anti-hepatic fibrosis activity against TGF-beta1 stimulated human LX2 cells assessed as inhibition of Smad2/3 nuclear translocation at 10 uM incubated for 48 hrs by DAPI staining based immunofluorescence analysis; assay type: functional, cell-based
CCC-HPF-1 [2] = assay: Anti-pulmonary fibrosis activity against TGF-beta1 stimulated human CCC-HPF-1 cells assessed as reduction in FN protein expression level at 5 to 20 uM incubated for 48 hrs by Western blotting analysis; assay type: functional, cell-based; details: dose 5-20 µM
LX-2 [3] = assay: Anti-migratory activity against TGF-beta1 stimulated human LX2 cells at 10 uM incubated for 24 hrs by light microscopic analysis; assay type: functional, cell-based
CCC-HPF-1 [4] = assay: Anti-migratory activity against TGF-beta1 stimulated human CCC-HPF-1 cells at 10 uM incubated for 24 hrs by light microscopic analysis; assay type: functional, cell-based
LX-2 [5] = assay: Cytotoxicity against human LX2 cells assessed as reduction in cell viability at 2.5 to 80 uM incubated for 48 hrs by MTT assay; assay type: toxicity, cell-based; details: lx-2, 48 h, dose 2.5-80 µM
LX-2 [6] = assay: Effect on total Smad3 level in TGF-beta1 stimulated human LX2 cells at 5 to 20 uM incubated for 48 hrs by Western blotting analysis; assay type: functional, cell-based; details: dose 5-20 µM
CCC-HPF-1 [7] = assay: Effect on total Smad2 level in TGF-beta1 stimulated human CCC-HPF-1 cells at 5 to 20 uM incubated for 48 hrs by Western blotting analysis; assay type: functional, cell-based; details: dose 5-20 µM
CCC-HPF-1 [8] = assay: Anti-pulmonary fibrosis activity against TGF-beta1 stimulated human CCC-HPF-1 cells assessed as reduction in alpha-SMA mRNA expression level at 5 to 20 uM incubated for 48 hrs by quantitative real-time PCR analysis; assay type: functional, cell-based; details: dose 5-20 µM
CCC-HPF-1 [9] = assay: Anti-pulmonary fibrosis activity against TGF-beta1 stimulated human CCC-HPF-1 cells assessed as reduction in COL1A1 mRNA expression level at 5 to 20 uM incubated for 48 hrs by quantitative real-time PCR analysis; assay type: functional, cell-based; details: dose 5-20 µM
LX-2 [10] = assay: Anti-hepatic fibrosis activity against TGF-beta1 stimulated human LX2 cells assessed as reduction in COL1A1 mRNA expression level at 5 to 20 uM incubated for 48 hrs by quantitative real-time PCR analysis; assay type: functional, cell-based; details: dose 5-20 µM
LX-2 [11] = assay: Effect on total Smad2 level in TGF-beta1 stimulated human LX2 cells at 5 to 20 uM incubated for 48 hrs by Western blotting analysis; assay type: functional, cell-based; details: dose 5-20 µM
LX-2 [12] = assay: Anti-hepatic fibrosis activity against TGF-beta1 stimulated human LX2 cells assessed as reduction in Smad3 phosphorylation incubated for 48 hrs by Western blotting analysis; assay type: functional, cell-based; details: dose 5-20 µM
CCC-HPF-1 [13] = assay: Effect on total Smad3 level in TGF-beta1 stimulated human CCC-HPF-1 cells at 5 to 20 uM incubated for 48 hrs by Western blotting analysis; assay type: functional, cell-based; details: dose 5-20 µM
CCC-HPF-1 [14] = assay: Anti-pulmonary fibrosis activity against TGF-beta1 stimulated human CCC-HPF-1 cells assessed as reduction in Smad2 phosphorylation incubated for 48 hrs by Western blotting analysis; assay type: functional, cell-based; details: dose 5-20 µM
Autotaxin [15] = biological target: T1, Autotaxin (Homo sapiens, UniProt Q13822); assay: Inhibition of human ATX in using LPC as substrate by fluorescence based microplate reader assay
CCC-HPF-1 [16] = assay: Anti-pulmonary fibrosis activity against TGF-beta1 stimulated human CCC-HPF-1 cells assessed as reduction in FN mRNA expression level at 5 to 20 uM incubated for 48 hrs by quantitative real-time PCR analysis; assay type: functional, cell-based; details: dose 5-20 µM
LX-2 [17] = assay: Anti-hepatic fibrosis activity against TGF-beta1 stimulated human LX2 cells assessed as reduction in alpha-SMA mRNA expression level at 5 to 20 uM incubated for 48 hrs by quantitative real-time PCR analysis; assay type: functional, cell-based; details: dose 5-20 µM
LX-2 [18] = assay: Anti-hepatic fibrosis activity against TGF-beta1 stimulated human LX2 cells assessed as reduction in Smad2 phosphorylation incubated for 48 hrs by Western blotting analysis; assay type: functional, cell-based; details: dose 5-20 µM
CCC-HPF-1 [19] = assay: Cytotoxicity against human CCC-HPF-1 cells assessed as reduction in cell viability at 2.5 to 80 uM incubated for 48 hrs by MTT assay; assay type: toxicity, cell-based; details: ccc-hpf-1, 48 h, dose 2.5-80 µM
CCC-HPF-1 [20] = assay: Anti-pulmonary fibrosis activity against TGF-beta1 stimulated human CCC-HPF-1 cells assessed as reduction in alpha-SMA protein expression level at 5 to 20 uM incubated for 48 hrs by Western blotting analysis; assay type: functional, cell-based; details: dose 5-20 µM
LX-2 [21] = assay: Anti-hepatic fibrosis activity against TGF-beta1 stimulated human LX2 cells assessed as reduction in FN mRNA expression level at 5 to 20 uM incubated for 48 hrs by quantitative real-time PCR analysis; assay type: functional, cell-based; details: dose 5-20 µM
LX-2 [22] = assay: Anti-hepatic fibrosis activity against TGF-beta1 stimulated human LX2 cells assessed as reduction in COL1A1 protein expression level at 5 to 20 uM incubated for 48 hrs by Western blotting analysis; assay type: functional, cell-based; details: dose 5-20 µM
LX-2 [23] = assay: Anti-hepatic fibrosis activity against TGF-beta1 stimulated human LX2 cells assessed as reduction in FN protein expression level at 5 to 20 uM incubated for 48 hrs by Western blotting analysis; assay type: functional, cell-based; details: dose 5-20 µM
LX-2 [24] = assay: Anti-hepatic fibrosis activity against TGF-beta1 stimulated human LX2 cells assessed as reduction in alpha-SMA protein expression level at 5 to 20 uM incubated for 48 hrs by Western blotting analysis; assay type: functional, cell-based; details: dose 5-20 µM
CCC-HPF-1 [25] = assay: Anti-pulmonary fibrosis activity against TGF-beta1 stimulated human CCC-HPF-1 cells assessed as reduction in COL1A1 protein expression level at 5 to 20 uM incubated for 48 hrs by Western blotting analysis; assay type: functional, cell-based; details: dose 5-20 µM
Autotaxin [26] = biological target: T1, Autotaxin; assay: Potency index, ratio of GLPG-1690 IC50 to test compound IC50 for inhibition of human ATX in using LPC as substrate by fluorescence based microplate reader assay
CCC-HPF-1 [27] = assay: Anti-pulmonary fibrosis activity against TGF-beta1 stimulated human CCC-HPF-1 cells assessed as inhibition of Smad2/3 nuclear translocation at 10 uM incubated for 48 hrs by DAPI staining based immunofluorescence analysis; assay type: functional, cell-based
CCC-HPF-1 [28] = assay: Anti-pulmonary fibrosis activity against TGF-beta1 stimulated human CCC-HPF-1 cells assessed as reduction in Smad3 phosphorylation incubated for 48 hrs by Western blotting analysis; assay type: functional, cell-based; details: dose 5-20 µM

C[C@H](CCC(=O)N1CCc2nc(NCCc3ccc(Cl)cc3)ncc2C1)[C@H]1CC[C@H]2[C@@H]3[C@@H](O)C[C@@H]4C[C@H](O)CC[C@]4(C)[C@H]3CC[C@]12C was tested, and the Activity (LX-2 [1]) was “Active”, the Activity (CCC-HPF-1 [2]) was “Active” and the Activity (LX-2 [3]) was “Active”. For the same compound, the Activity (CCC-HPF-1 [4]) was “Active”, the Activity (LX-2 [5]) was “Non-Toxic” and the Activity (LX-2 [6]) was “inactive”. The Activity (CCC-HPF-1 [7]) was “inactive”, the Activity (CCC-HPF-1 [8]) was “Active” and the Activity (CCC-HPF-1 [9]) was “Active”. For the same compound, the Activity (LX-2 [10]) was “Active”, the Activity (LX-2 [11]) was “inactive” and the Activity (LX-2 [12]) was “Dose-Dependent Effect”. For the same compound, the Activity (CCC-HPF-1 [13]) was “inactive”, the Activity (CCC-HPF-1 [14]) was “Dose-Dependent Effect” and the pIC50 (Autotaxin [15]) was 8.12. The Activity (CCC-HPF-1 [16]) was “Active”, the Activity (LX-2 [17]) was “Active” and the Activity (LX-2 [18]) was “Dose-Dependent Effect”. The Activity (CCC-HPF-1 [19]) was “Non-Toxic”, the Activity (CCC-HPF-1 [20]) was “Active” and the Activity (LX-2 [21]) was “Active”. For the same compound, the Activity (LX-2 [22]) was “Active”, the Activity (LX-2 [23]) was “Active” and the Activity (LX-2 [24]) was “Active”. The Activity (CCC-HPF-1 [25]) was “Active”, the Ratio IC50 (Autotaxin [26]) was 9 and the Activity (CCC-HPF-1 [27]) was “Active”. The Activity (CCC-HPF-1 [28]) was “Dose-Dependent Effect”.
